Results on 1 molecule are retold here after publication PMC4189421, “Induction of Oligodendrocyte Differentiation and In Vitro Myelination by Inhibition of Rho-Associated Kinase” (ASN NEURO, 2014).

One assay has as its system mouse Nph-OPCs. Nature of the assay: Cell proliferation as number of Hoechst-labeled nuclei. The class given is cell-based. Particulars: 1 µM; n = 3 in triplicate wells; DMSO: 522 ± 126. The text has this:
To determine the effects of ROCK inhibition on OPCs, we developed a high-content image morphological analysis of OPC differentiation using mouse embryonic neural progenitor-derived OPCs (Nph-OPCs). Neural progenitors grow as nonadherent spheroids known as neurospheres (Nph; [Chojnacki & Weiss, 2008]; [Tropepe et al., 1999]), which are considered to be a mixed population of neural stem cells and progenitors of the CNS ([Rao, 1999]; [Zhou & Chiang, 1998]). These cells have been previously used in multiple published studies for the generation of high-yield, high-purity cultures of OPCs from rodents ([Calaora et al., 2001]; [[…] al., 1997]; [Pedraza et al., 2008]). After 24 hr of plating on PDL-coated tissue culture plastic, Nph-OPCs were treated as indicated with differentiation stimuli and further incubated for 72 hr. […] Four images per well were analyzed using a neurite outgrowth module (Molecular Devices, Sunnyvale, CA). We quantified the number of branches and total outgrowth per cell (Figure 1). […] Additionally, nuclear staining by Hoechst allowed the accurate association of branches and processes to their corresponding cell bodies and permitted quantification of total cell numbers in each well. […]

Assay [1] concerns cerebellar organotypic cultures. The assay can be described thus: Remyelination in lysolecithin-demyelinated cerebellar slices (qPCR of MBP, PLP, MOG). The class given is cell-based, rat. Particulars: 10 µM, 10-day incubation post-lysolecithin, vs 0.1% DMSO.
Protocol: In brief, after careful dissection to keep the tissue intact, cerebella of postnatal Days 4 to7 wild-type mouse pups were sectioned at 400 -µm thickness using a Leica VT1000S vibratome. […] When the slices were firmly attached, fresh medium was added to cover the tissue, and the cultures were maintained under these conditions for 4 days. […] Treatments with compounds were initiated at this point, and the cultures maintained for 4 to 10 additional days. Demyelination–remyelination was assessed by real-time polymerase chain reaction (PCR).
Total RNA was isolated from single-cell cultures or tissue explants using Tri-Zol reagent (Gibco). cDNA was generated from 1 to 3 µg of total RNA by Retrotranscriptase II (Gibco) reaction, and the selected transcripts were detected and amplified by quantitative RT-PCR in an Applied Biosystems (Grand Island, NY) 7500 fast qPCR machine, following the manufacturer’s instructions.
The test system of assay [2] is hPSC-OPCs cocultured with rat dorsal root ganglion neurons. The assay can be described thus: Myelination in hPSC-OPC / rat DRG neuron cocultures (MBP/NF overlap). The class given is cell-based, human. Particulars: compound for first 48 hr, 28 days coculture. How it is done: Human pluripotent stem cell-derived OPC (hSC-OPC)/[…] dorsal root ganglion (rDRG) cocultures were carried out as follows: 5,000 hES-OPCs were seeded on top of 14-day-old DRG neuron axons in each well of 96-well black μClear plates (Greiner). The cells were seeded in 100 μl of myelination media (MYL) for each well. Twenty-four hours after seeding, media were gently removed, and a fresh MYL medium that contained the compound of interest at a specific dilution (in 0.1% DMSO) was supplemented to the media (first feeding), and the total volume for each well was 200 μl. For each tested compound dose, four replicates were used. After 48 hr, the media were replenished by removing 100 μl of media, and fresh MYL medium (that contains 0.1% DMSO) was added to the wells. […]
The ArrayScan VTI HCS reader system (Cellomis, Thermo-scientific) was used for scanning 49 fields for each tested well under 10× objective. […] The four-parameter Hill-Slope curve fittings were generated by GraphPad Prism software using least squares fitting method, and EC50 values were calculated for the three major parameters of oligodendrocyte myelination: number of differentiated oligodendrocytes, areas of myelinated axons in pixels (MBP and NF overlap area), and number of myelinated regions (MBP and NF overlap count). […]

For `C[C@@H](N)[C@H]1CC[C@H](C(=O)Nc2ccncc2)CC1.Cl.Cl` [Y0503, trans-4-[(1 R)-1-aminoethyl]-N-4-pyridinylcyclohexanecarboxamide dihydrochloride], the “Number of Hoechst-labeled nuclei” value in the assay on mouse Nph-OPCs came out at 625 ± 88 cells/well. Moreover, the “Expression of MBP, PLP, MOG mRNAs in demyelinated cerebellar slices (qPCR)” value in assay [1] is given as “significant increase”. The “Number and length of MBP-positive oligodendrocyte processes colocalized with NF-positive axons” value in assay [2] is recorded as “dose-response effect”.
